Measurements as given in patent US20190269666A1, “COMBINATION THERAPY WITH MERESTINIB AND ANTI-PD-L1 OR ANTI-PD-1 INHIBITORS FOR USE IN THE TREATMENT OF CANCER” (Eli Lilly and Company, priority 2016, published 2019).

Experiments:
phospho-AXL (p-AXL) = biological target: T1, phospho-AXL (p-AXL) (Mus musculus, UniProt Q00993); assay: Mouse phospho-RTK array in CT26 cells; format: cell-based; conditions: 500 nM, CT26 cells in vitro
T1 construct: CT26 cells also express high level of phospho-AXL (p-AXL) by western blot analysis; endogenous in cells; host or cells: CT26 (mouse colorectal cancer line)
T1 sequence (Q00993 19-888): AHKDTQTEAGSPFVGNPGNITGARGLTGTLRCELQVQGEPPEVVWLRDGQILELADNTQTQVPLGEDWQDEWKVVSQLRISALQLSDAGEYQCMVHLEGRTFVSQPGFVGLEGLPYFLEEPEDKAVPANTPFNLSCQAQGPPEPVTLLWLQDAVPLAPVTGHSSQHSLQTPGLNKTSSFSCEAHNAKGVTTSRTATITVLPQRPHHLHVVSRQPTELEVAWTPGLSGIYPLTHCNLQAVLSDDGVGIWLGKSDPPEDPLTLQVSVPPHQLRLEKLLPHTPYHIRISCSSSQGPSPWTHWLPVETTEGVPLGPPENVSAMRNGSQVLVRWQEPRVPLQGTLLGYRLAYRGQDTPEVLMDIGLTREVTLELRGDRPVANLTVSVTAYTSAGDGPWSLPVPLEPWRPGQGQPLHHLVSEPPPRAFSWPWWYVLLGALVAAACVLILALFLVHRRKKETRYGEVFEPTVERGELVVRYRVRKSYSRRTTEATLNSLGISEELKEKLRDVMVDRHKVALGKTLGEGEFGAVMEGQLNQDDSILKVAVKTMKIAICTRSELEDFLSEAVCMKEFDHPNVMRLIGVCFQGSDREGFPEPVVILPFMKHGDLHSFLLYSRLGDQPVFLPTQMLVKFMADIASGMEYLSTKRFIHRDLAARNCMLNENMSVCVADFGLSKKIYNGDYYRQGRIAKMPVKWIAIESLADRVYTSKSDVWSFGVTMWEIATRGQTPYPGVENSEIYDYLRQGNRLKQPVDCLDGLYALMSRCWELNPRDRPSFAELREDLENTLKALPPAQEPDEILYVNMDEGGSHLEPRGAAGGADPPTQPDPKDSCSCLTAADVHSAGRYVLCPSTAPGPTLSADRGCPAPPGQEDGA
Description: (§1) CT26 CRC tumor cells harbor KRAS activating mutation G12D. […] CT26 cells also express high level of phospho-AXL (p-AXL) by western blot analysis and merestinib is shown to decrease p-AXL in vitro by more than 60% at a concentration of 500 nM in the mouse phospho-RTK array, but show very little effect on CT26 cell proliferation (IC50>20 μM).

CT26 cells = assay: CT26 cell proliferation; format: cell-based; conditions: Mus musculus, in vitro
Description: as §1

[1] = tested on: CT26 colorectal cancer model; assay: Study S082015: single agent merestinib in CT26 syngeneic mouse tumor model; format: in vivo; conditions: for Body weight change from baseline (%) / T/C %: Day 26
Description: A syngeneic mouse tumor model is used to evaluate potential combination effect of merestinib and anti-PD-L1 antibody is the CT26 colorectal cancer model using the mouse colorectal cancer line CT26. This experiment is conducted in immune competent mice (Grosso and Jure-Kunkel, Cancer Immunity Vol. 13, p. 5, January 2013; Duraiswamy et al, Cancer Research, Jun. 15, 2013 73; 3591.). Anti-PD-L1 antibody surrogate (178G7, LSN3370181) (Eppihimer et al. Microcirculation 2002:9(2):133) is used in the mouse study.
Female BALB/c mice (18-20 gm) from Envigo (Harlan Laboratories) are used for this study. Food and water are available ad libitum. Animals are acclimated for one week prior to any experimental manipulation. The study is performed in accordance with AALAC accredited institutional guidelines.
Merestinib is formulated as a solution in 10% PEG 400 in 90% (20% Captisol in water) once weekly. Anti-PD-L1 antibody (178G7, LSN3370181) is formulated in PBS (phosphate buffered saline).
CT26 cells (from internal in vivo pharmacology cell culture group lot CT26.WT.3184878) are used for implantation. Approximately 1×10^6 cells in HBSS are implanted subcutaneously into the right hind flank of the animal under anesthesia.
Study S082015 has four groups: 1) vehicle control (10% PEG 400 in 90% [20% Captisol in water]) dosed orally once daily for 21 days; 2) single agent merestinib at 6 mg/kg once daily orally for 21 days; 3) single agent merestinib at 12 mg/kg once daily orally for 21 days; 4) single agent merestinib at 24 mg/kg once daily orally for 21 days. Dosing of merestinib is initiated at Day 6 post-implant of the CT26 cells. There are 15 animals per group. Five animals per group are taken down on Day 13 and on Day 20 post-implant of CT26 cells for the harvesting of spleens and tumors for the interrogation of the effect of merestinib on immune functions. Five animals per group remain to the end of the study (Day 26). Tumor volumes and body weight are measured bi-weekly. Tumor volume is estimated by using the formula: v=l×w2×0.536 where l=larger of measured diameter and w=smaller of perpendicular diameter. At the end of the study, animals are sacrificed using CO2 and cervical dislocation.
Tumor volume is transformed to the log scale to equalize variance across time and treatment groups. The log volume data are analyzed with a two-way repeated measures analysis of variance by time and treatment using the MIXED procedures in SAS software (Version 9.3). The correlation model for the repeated measures is spatial power. Treated groups are compared to the control group at each time point. The MIXED procedure is also used separately for each treatment group to calculate least squares means and standard errors at each time point. Both analyses account for the autocorrelation within each animal and the loss of data that occurs when animals are removed or lost before Day 33.

immune cells = assay: Flow cytometry analysis of immune cells in spleens and tumors; format: in vivo, mouse; conditions: compared to concurrent combination or vehicle control
Description: Spleens and tumors are collected from a subset of animals on the indicated study day(s) and processed for FACS analysis by homogenizing tissues through a tissue strainer to prepare a single cell suspension in culture medium. Single cell suspensions are then stained with fluorescently-labeled antibodies to identify immune markers including: CD3, CD4, CD8, CD11b, CD19, CD45, FoxP3, PD-L1, F4/80 and a fixable viability dye. Cells are analyzed using a BD LSR II flow cytometer. Data are collected and analyzed using Flowjo (Tree Star, Inc.) to measure the percentage of total live lymphocytes (Live, CD45+) in each tissue. Immune cell subsets are then measured as a percentage of CD45 cells, or as a percentage of the immediate parent population.

Compound: Cc1ccc(C(=O)Nc2ccc(Oc3cc4cnn(C)c4cc3-c3cn[nH]c3)c(F)c2)c(=O)n1-c1ccc(F)cc1 [merestinib, N-(3-fluoro-4-(1-methyl-6-(1H-pyrazol-4-yl)-1H-indazol-5-yloxy)phenyl)-1-(4-fluorophenyl)-6-methyl-2-oxo-1,2-dihydropyridine-3-carboxamide]
- decrease of p-AXL (phospho-AXL (p-AXL)): more than 60%
- IC50 (CT26 cells): > 20 µM
- Body weight change from baseline (%) ([1]; 6 mg/kg once daily orally): 5.7%
- T/C % ([1]; 6 mg/kg once daily orally): 52.8%
- Body weight change from baseline (%) ([1]; 12 mg/kg once daily orally): 3.4%
- T/C % ([1]; 12 mg/kg once daily orally): 34.8%
- anti-tumor effect ([1]; 24 mg/kg dose): tumor stasis
- Body weight change from baseline (%) ([1]; 24 mg/kg once daily orally): 3.0%
- T/C % ([1]; 24 mg/kg once daily orally): 13.4%
- anti-tumor effect as compared to vehicle control ([1]; 6, 12, 24 mg/kg once daily orally): significant anti-tumor effect
- tolerability ([1]; all three doses (6, 12, 24 mg/kg), no significant loss in body weight): well tolerated
- change in immune cells by flow cytometry (immune cells): no significant change
